The record followed here is PubChem BioAssay AID200 (DTP/NCI, 2004).

This assay has as its system B6C3F1 mice, B16 melanoma ip, median survival T/C. Briefly: NCI In Vivo Anticancer Drug Screen. Data for tumor model B16 Melanoma (intraperitoneal) in B6C3F1 mice. As to conditions: endpoint: median survival time, higher = longer survival. The method in brief: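 Readout: survival or tumor size in treated mice relative to vehicle controls (T/C). Model uses transplantable tumors grown in mice.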

The mark [1] stands for this setting: dose: 12.5 mg/kg/injection, schedule: Q01DX009 (ip), vehicle: Klucel (hydroxypropylcellulose) (HPC).
The mark [2] stands for this setting: dose: 25.0 mg/kg/injection, schedule: Q01DX009 (ip), vehicle: Klucel (hydroxypropylcellulose) (HPC).
Where [3] appears, read: dose: 50.0 mg/kg/injection, schedule: Q01DX009 (ip), vehicle: Klucel (hydroxypropylcellulose) (HPC).
Where [4] appears, read: dose: 100.0 mg/kg/injection, schedule: Q01DX009 (ip), vehicle: Klucel (hydroxypropylcellulose) (HPC).
The mark [5] stands for this setting: dose: 200.0 mg/kg/injection, schedule: Q01DX009 (ip), vehicle: Klucel (hydroxypropylcellulose) (HPC).
Setting [6] is: dose: 12.5 mg/kg/injection, schedule: Q01DX009 (ip), vehicle: saline with Tween-80.
The mark [7] stands for this setting: dose: 25.0 mg/kg/injection, schedule: Q01DX009 (ip), vehicle: saline with Tween-80.
The mark [8] stands for this setting: dose: 50.0 mg/kg/injection, schedule: Q01DX009 (ip), vehicle: saline with Tween-80.
Where [9] appears, read: dose: 100.0 mg/kg/injection, schedule: Q01DX009 (ip), vehicle: saline with Tween-80.
The mark [10] stands for this setting: dose: 200.0 mg/kg/injection, schedule: Q01DX009 (ip), vehicle: saline with Tween-80.
Where [11] appears, read: dose: 100.0 mg/kg/injection, schedule: Q01DX009 (ip), vehicle: saline.
[12] abbreviates: dose: 200.0 mg/kg/injection, schedule: Q01DX009 (ip), vehicle: saline.
[13] abbreviates: dose: 400.0 mg/kg/injection, schedule: Q01DX009 (ip), vehicle: saline.
Where [14] appears, read: dose: 25.0 mg/kg/injection, schedule: Q01DX009 (ip), vehicle: saline.
The mark [15] stands for this setting: dose: 50.0 mg/kg/injection, schedule: Q01DX009 (ip), vehicle: saline.
[16] abbreviates: dose: 1.56 mg/kg/injection, schedule: Q01DX009 (ip), vehicle: Klucel (hydroxypropylcellulose) (HPC).
Setting [17] is: dose: 3.12 mg/kg/injection, schedule: Q01DX009 (ip), vehicle: Klucel (hydroxypropylcellulose) (HPC).
Setting [18] is: dose: 6.25 mg/kg/injection, schedule: Q01DX009 (ip), vehicle: Klucel (hydroxypropylcellulose) (HPC).
Where [19] appears, read: dose: 6.25 mg/kg/injection, schedule: Q01DX009 (ip), vehicle: saline.
The mark [20] stands for this setting: dose: 12.5 mg/kg/injection, schedule: Q01DX009 (ip), vehicle: saline.
Setting [21] is: dose: 6.25 mg/kg/injection, schedule: Q01DX009 (ip), vehicle: saline with Tween-80.

Where “and” joins values, the source holds several entries; their conditions need not be identical. Equal entries are not always repeated. Toxic doses and inconclusive results are not listed.

For `COc1ccc(OC)c(Cc2cnc3nc(N)nc(N)c3c2C)c1`, the T/C is, setting by setting: (dose: 6.25 mg/kg/injection, schedule: Q01DX009 (ip), vehicle: water) 106 % of control; (dose: 12.5 mg/kg/injection, schedule: Q01DX009 (ip), vehicle: water) 104 % of control; (dose: 25.0 mg/kg/injection, schedule: Q01DX009 (ip), vehicle: water) 99 % of control; (dose: 50.0 mg/kg/injection, schedule: Q01DX009 (ip), vehicle: water) 93 % of control.
On to `CC12CCC3C(CCC4CC(OC(=O)Cc5ccc(N(CCCl)CCCl)cc5)CCC43C)C1CCC(=O)N2` (stereo not drawn), for which the T/C (dose: 1.5 mg/kg/injection, schedule: Q01DX009 (ip), vehicle: saline with Tween-80) is 113 % of control; the T/C (dose: 3.0 mg/kg/injection, schedule: Q01DX009 (ip), vehicle: saline with Tween-80) is 106 % of control; the T/C (dose: 12.0 mg/kg/injection, schedule: Q01DX009 (ip), vehicle: saline with Tween-80) was 167 % of control.
As to `CC(C)=CC(=O)OC1C2C(C)=CC(=O)C(O)C2(C)C2C3(O)OCC24C(CC(=O)OC14)C(C)C3O` (stereo not drawn), the T/C (dose: 0.25 mg/kg/injection, schedule: Q01DX009 (ip), vehicle: distilled water + Tween-80) was 163 % of control and 168 % of control; the T/C (dose: 0.5 mg/kg/injection, schedule: Q01DX009 (ip), vehicle: distilled water + Tween-80) is 150 % of control and 160 % of control and 168 % of control.
For `CSc1cc(C)[o+]c(C)c1`, the T/C runs as follows: under setting [1], 106 % of control; under setting [2], 105 % of control; under setting [3], 106 % of control; under setting [4], 109 % of control; under setting [5], 101 % of control.
`CCO/C=C1\SC(=S)N(c2ccccc2C)C1=O`: the T/C runs as follows: under setting [6], 111 % of control; under setting [7], 111 % of control; under setting [8], 108 % of control and 105 % of control; under setting [9], 109 % of control and 116 % of control; under setting [10], 112 % of control and 116 % of control.
With `C[C@]12CC[C@H](O)CC1=CC[C@@H]1[C@@H]2CC[C@]2(C)C(=O)CC[C@@H]12`, the T/C is, setting by setting: under setting [7], 100 % of control; under setting [8], 97 % of control; under setting [9], 101 % of control; under setting [10], 92 % of control.
For the compound `CC(C)(C#CC(C)(C)OC(=O)Nc1ccccc1)OC(=O)Nc1ccccc1`, the T/C under setting [11] was 106 % of control, the T/C under setting [12] is 100 % of control and the T/C under setting [13] was 98 % of control.
Regarding `CCC(C)C(O)C(C)C(=O)C(C)/C=C(\C)CC(C)C1OC(=O)C1C` (stereo not drawn), the T/C (dose: 0.25 mg/kg/injection, schedule: Q01DX009 (ip), vehicle: saline + alcohol) was 96 % of control; the T/C (dose: 0.5 mg/kg/injection, schedule: Q01DX009 (ip), vehicle: saline + alcohol) was 98 % of control and 104 % of control; the T/C (dose: 1.0 mg/kg/injection, schedule: Q01DX009 (ip), vehicle: saline + alcohol) was 99 % of control and 101 % of control; the T/C (dose: 2.0 mg/kg/injection, schedule: Q01DX009 (ip), vehicle: saline + alcohol) is 96 % of control and 98 % of control.
Turning to `CC(=O)NCCSSCCCCS(=O)O`, the T/C is 96 % of control under setting [14]; 103 % of control under setting [15]; 98 % of control under setting [11]; 111 % of control under setting [12]; 96 % of control under setting [13].
Turning to `O=C1C(=O)c2cccnc2-c2ncccc21`, the T/C by setting is: (dose: 0.75 mg/kg/injection, schedule: Q01DX009 (ip), vehicle: Klucel (hydroxypropylcellulose) (HPC)) 104 % of control; (dose: 0.78 mg/kg/injection, schedule: Q01DX009 (ip), vehicle: Klucel (hydroxypropylcellulose) (HPC)) 102 % of control; (dose: 1.5 mg/kg/injection, schedule: Q01DX009 (ip), vehicle: Klucel (hydroxypropylcellulose) (HPC)) 115 % of control and 107 % of control; under setting [16], 115 % of control and 98 % of control; (dose: 3.0 mg/kg/injection, schedule: Q01DX009 (ip), vehicle: Klucel (hydroxypropylcellulose) (HPC)) 119 % of control and 92 % of control and 98 % of control; under setting [17], 114 % of control and 100 % of control. For the same compound, the T/C reads like this: (dose: 6.0 mg/kg/injection, schedule: Q01DX009 (ip), vehicle: Klucel (hydroxypropylcellulose) (HPC)) 113 % of control and 87 % of control and 108 % of control; under setting [18], 109 % of control.
Take `CS(=O)(=O)Nc1ccc(C(=O)CCN2CCCCCC2)cc1`: the T/C (dose: 25.0 mg/kg/injection, schedule: Q01DX009 (ip), vehicle: suspension in saline) was 122 % of control; the T/C (dose: 50.0 mg/kg/injection, schedule: Q01DX009 (ip), vehicle: suspension in saline) is 98 % of control; the T/C (dose: 100.0 mg/kg/injection, schedule: Q01DX009 (ip), vehicle: suspension in saline) was 96 % of control; the T/C (dose: 200.0 mg/kg/injection, schedule: Q01DX009 (ip), vehicle: suspension in saline) was 92 % of control.
Regarding `Cc1cc2nc(Cc3nc4cc(C)c(C)cc4[nH]3)[nH]c2cc1C`, the T/C by setting is: under setting [8], 94 % of control; under setting [9], 93 % of control; under setting [10], 88 % of control.
For the compound `O=C1CN(CO)C(=O)N1CO`, the T/C is 93 % of control under setting [2], 97 % of control under setting [3], 110 % of control under setting [4] and 103 % of control under setting [5].
On to `COC12[C@@H]3N[C@@H]3CN1C1=C(C(=O)C(NCCSSCCNC3=C(C)C(=O)C4=C(C3=O)C(COC(N)=O)[C@]3(OC)C5N[C@@H]5CN43)=C(C)C1=O)[C@@H]2COC(N)=O` (stereo partly drawn), for which the T/C is 193 % of control (dose: 0.75 mg/kg/injection, schedule: Q04DX003 (ip), vehicle: suspension in saline); 190 % of control (dose: 1.5 mg/kg/injection, schedule: Q04DX003 (ip), vehicle: suspension in saline); 218 % of control (dose: 3.0 mg/kg/injection, schedule: Q04DX003 (ip), vehicle: suspension in saline); 218 % of control (dose: 6.0 mg/kg/injection, schedule: Q04DX003 (ip), vehicle: suspension in saline); 218 % of control (dose: 12.0 mg/kg/injection, schedule: Q04DX003 (ip), vehicle: suspension in saline).
Turning to `CC1(C)COCN1COC1CCCCC1`, the T/C reads like this: under setting [19], 99 % of control; under setting [20], 114 % of control; under setting [7], 102 % of control; under setting [14], 99 % of control; under setting [8], 112 % of control; under setting [15], 114 % of control. Also, the T/C under setting [9] is 115 % of control and the T/C under setting [11] is 106 % of control.
As for `CN(C(=S)S(=O)(=O)C12CC3CC(CC(C3)C1)C2)c1ccccc1`, the T/C by setting is: under setting [16], 104 % of control; under setting [17], 98 % of control; under setting [18], 104 % of control; under setting [1], 101 % of control; under setting [2], 114 % of control; under setting [3], 104 % of control.
Regarding `CCCCc1ccc2nc(NC(=O)OC)[nH]c2c1`, the T/C under setting [7] was 154 % of control, the T/C under setting [8] is 165 % of control and the T/C under setting [9] was 165 % of control.
Take `CCCC1CCC(=C2C(=O)CCC2=O)O1` (stereo not drawn): the T/C was 103 % of control under setting [7] and 98 % of control under setting [8].
As for `O=[Te]=O`, the T/C was 110 % of control (dose: 3.12 mg/kg/injection, schedule: Q01DX009 (ip), vehicle: saline) and 109 % of control under setting [19].
`OC(c1ccccc1)C(O)C(c1ccccc1)N1CCCCC1` (stereo not drawn): the T/C by setting is: under setting [9], 100 % of control; under setting [10], 102 % of control; (dose: 400.0 mg/kg/injection, schedule: Q01DX009 (ip), vehicle: saline with Tween-80) 111 % of control.
Consider `O=CNCC(=O)O`, for which the T/C under setting [15] was 91 % of control and the T/C under setting [11] is 89 % of control.
`COC1=CCC23C(=O)C=CC(=O)C2(C1)C(=O)c1ccccc1C3=O` (stereo not drawn): the T/C (dose: 1.56 mg/kg/injection, schedule: Q01DX009 (ip), vehicle: saline with Tween-80) was 99 % of control; the T/C (dose: 3.12 mg/kg/injection, schedule: Q01DX009 (ip), vehicle: saline with Tween-80) was 96 % of control; the T/C under setting [21] is 93 % of control; the T/C under setting [6] was 94 % of control.
As to `COC(=O)Nc1nc2ccc(C3(c4ccc(F)cc4)OCCO3)cc2[nH]1`, the T/C was 93 % of control under setting [21], 118 % of control under setting [6], 117 % of control under setting [20] and 172 % of control under setting [8].
